Columns and labels:
[1] = test system: urothelial carcinoma (UC) cell lines; assay: XTT cell viability assay, UC cell lines; format: cell-based, Human; conditions: Homo sapiens; mean of three cell lines, 48 h
Experimental: (§1) The […] (XTT) assays were performed as described previously. In summary, for GCT and fibroblast cell lines 5 × 10^3 cells (3 × 10^3 for UC, PCa and RCC cell lines) per 96-well were seeded and different drug concentrations (see Additional file 2: Fig. S2, Additional file 3: Fig. S3) or corresponding solvents were added to the cells the following day. For drug details see Additional file 12: Table S2 C. Each condition was analyzed in four technical replicates and EC50 values were calculated by GraphPad Prism v8.

[2] = test system: prostate cancer (PCa) cell lines; assay: XTT cell viability assay, PCa cell lines; format: cell-based, Human; conditions: Homo sapiens; mean of three cell lines, 48 h
Experimental: as §1

[3] = test system: renal cell carcinoma (RCC) cell lines; assay: XTT cell viability assay, RCC cell lines; format: cell-based; conditions: Homo sapiens; mean of three cell lines, 48 h
Experimental: as §1

[4] = test system: 2102EP-R; assay: Flow cytometry apoptosis (Annexin V/PI), 2102EP-R; format: cell-based, Human; conditions: EC50, 16 h, compared to the parental cell line
[5] = test system: GCT cells; assay: Flow cytometry cell cycle (PI), GCT cells; format: cell-based, Human; conditions: EC50, 16 h
Experimental: For Annexin V/PI staining, cells were washed with Annexin V Binding Buffer before being resuspended in 70 µl Annexin V Binding Buffer and 2.5 μl Annexin V FITC-conjugate (both Miltenyi Biotec, Bergisch Gladbach, Germany) and 15 µg PI (Sigma-Aldrich, Taufkirchen, Germany) and incubated in the dark at room temperature for 15 min. 500 µl of Annexin V Binding Buffer was added before measurement. For the cell cycle analysis, cells were washed with PBS (phosphate buffered saline), fixed by ice cold 70% ethanol and stained with 2 µg/ml PI and 200 µg/ml RNaseA (Quiagen, Hilden, Germany 100 mg/ml) in PBS shortly before every measurement. At least 5 × 10^4 cells were counted and analyzed using the MACSQuant software v 2.13.0.

[6] = test system: histone modifications in 2102EP cells; assay: Mass spectrometry analysis of histone modifications (Mod Spec); format: cell-based, Human
In short: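 2102EP cells were treated for 16 h with EC50 concentrations of Quisinostat, JIB-04, Chaetocin, MZ-1, LP99, PRT4165 or GSK343, with DMSO as solvent control. After trypsin harvest, histones were extracted and analysed by mass spectrometry. Raw data were converted to z-scores.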

[7] = 2102EP cells, Mod Spec raw data
[8] = 2102EP, EC50, 16 h, vs solvent control

## CN1C(=O)[C@@]23C[C@]4([C@]56C[C@@]78SS[C@@](CO)(C(=O)N7[C@H]5Nc5ccccc56)N(C)C8=O)c5ccccc5N[C@@H]4N2C(=O)[C@]1(CO)SS3 [Chaetocin]
[1]
  EC50: 99.6 nM
[2]
  EC50: 233 nM
[3]
  EC50: 156 nM
[4]
  apoptosis induction in 2102EP-R: did not induce apoptosis
[5]
  cell cycle phase accumulation in GCT cells: accumulation in the G2/M phase
[6]; [7]
  H1.4: K25AC, % of peptide pool: 0.02988%
  H1.4: K25ME1, % of peptide pool: 2.019%
  H1.4: K25ME2, % of peptide pool: 0.1186%
  H1.4: K25ME3, % of peptide pool: 0.02061%
  H1.4: K25UN, % of peptide pool: 97.812%
  H2A1: K13AC, % of peptide pool: 0.0146%
  H2A1: K13UN, % of peptide pool: 99.9854%
  H2A1: K15AC, % of peptide pool: 0.01159%
  H2A1: K15UB, % of peptide pool: 0%
  H2A1: K15UN, % of peptide pool: 99.9884%
  H2A3: K13AC, % of peptide pool: 0.04893%
  H2A3: K13UN, % of peptide pool: 99.9511%
  H2A3: K15AC, % of peptide pool: 0.07659%
  H2A3: K15UB, % of peptide pool: 0%
  H2A3: K15UN, % of peptide pool: 99.9234%
  H2A: K5AC, % of peptide pool: 14.3188%
  H2A: K5UN, % of peptide pool: 85.6812%
  H2A: K9AC, % of peptide pool: 1.675%
  H2A: K9UN, % of peptide pool: 98.3248%
  H2A: K36AC, % of peptide pool: 0.05938%
  H2A: K36UN, % of peptide pool: 99.9406%
  H3: K9AC, % of peptide pool: 0.8662%
  H3: K9ME1, % of peptide pool: 34.1794%
  H3: K9ME2, % of peptide pool: 24.6408%
  H3: K9ME3, % of peptide pool: 2.426%
  H3: K9UN, % of peptide pool: 37.8878%
  H3: K14AC, % of peptide pool: 29.886%
  H3: K14UN, % of peptide pool: 70.114%
  H3: K18AC, % of peptide pool: 12.8748%
  H3: K18ME1, % of peptide pool: 0.1543%
  H3: K18UN, % of peptide pool: 86.9709%
  H3: K23AC, % of peptide pool: 19.2205%
  H3: K23ME1, % of peptide pool: 0.03585%
  H3: K23UN, % of peptide pool: 80.7437%
  H3: K56AC, % of peptide pool: 0.2394%
  H3: K56ME1, % of peptide pool: 0.9888%
  H3: K56UN, % of peptide pool: 98.7718%
  H3: K64AC, % of peptide pool: 0.03741%
  H3: K64UN, % of peptide pool: 99.9626%
  H3: K79AC, % of peptide pool: 1.813%
  H3: K79ME1, % of peptide pool: 15.4225%
  H3: K79ME2, % of peptide pool: 5.182%
  H3: K79ME3, % of peptide pool: 17.8629%
  H3: K79UN, % of peptide pool: 59.719%
  H3: K122AC, % of peptide pool: 0.1813%
  H3: K122UN, % of peptide pool: 99.8187%
  H3: Q19ME1, % of peptide pool: 0.03077%
  H3: Q19UN, % of peptide pool: 99.9692%
  H3: Q55ME1, % of peptide pool: 0.2687%
  H3: Q55UN, % of peptide pool: 99.7313%
  H3: R42ME2, % of peptide pool: 2.246%
  H3: R42UN, % of peptide pool: 97.7541%
  H3: R49ME2, % of peptide pool: 6.84%
  H3: R49UN, % of peptide pool: 93.1597%
  H3R2UN: K4AC, % of peptide pool: 0.1823%
  H3R2UN: K4ME1, % of peptide pool: 17.5028%
  H3R2UN: K4ME2, % of peptide pool: 0.3386%
  H3R2UN: K4ME3, % of peptide pool: 0.1482%
  H3R2UN: K4UN, % of peptide pool: 81.8281%
  H3R2UN: Q5ME1, % of peptide pool: 0.09687%
  H3R2UN: Q5UN, % of peptide pool: 99.9031%
  H3.1: K27AC, % of peptide pool: 2.462%
  H3.1: K27ME1, % of peptide pool: 46.5828%
  H3.1: K27ME2, % of peptide pool: 19.949%
  H3.1: K27ME3, % of peptide pool: 2.906%
  H3.1: K27UN, % of peptide pool: 28.0999%
  H3.1: K36AC, % of peptide pool: 0.3566%
  H3.1: K36ME1, % of peptide pool: 14.5986%
  H3.1: K36ME2, % of peptide pool: 44.4208%
  H3.1: K36ME3, % of peptide pool: 21.3142%
  H3.1: K36UN, % of peptide pool: 19.3097%
  H3.3: K27AC, % of peptide pool: 5.581%
  H3.3: K27M, % of peptide pool: 0%
  H3.3: K27ME1, % of peptide pool: 45.9713%
  H3.3: K27ME2, % of peptide pool: 14.9979%
  H3.3: K27ME3, % of peptide pool: 5.393%
  H3.3: K27UN, % of peptide pool: 28.0564%
  H3.3: K36AC, % of peptide pool: 3.238%
  H3.3: K36ME1, % of peptide pool: 13.4078%
  H3.3: K36ME2, % of peptide pool: 46.3675%
  H3.3: K36ME3, % of peptide pool: 22.3154%
  H3.3: K36UN, % of peptide pool: 14.6709%
  H4: K5AC, % of peptide pool: 7.567%
  H4: K5UN, % of peptide pool: 92.4335%
  H4: K8AC, % of peptide pool: 11.8437%
  H4: K8UN, % of peptide pool: 88.1563%
[6]; 2102EP cells, Mod Spec raw data, histone H4 K12 acetylated
  H4: K12AC, % of peptide pool: 6.89 % of peptide pool
[6]; 2102EP cells, Mod Spec raw data, histone H4 K12 unmodified
  H4: K12UN, % of peptide pool: 93.1103 % of peptide pool
[6]; 2102EP cells, Mod Spec raw data, histone H4 K16 acetylated
  H4: K16AC, % of peptide pool: 48.815 % of peptide pool
[6]; 2102EP cells, Mod Spec raw data, histone H4 K16 unmodified
  H4: K16UN, % of peptide pool: 51.185 % of peptide pool
[6]; 2102EP cells, Mod Spec raw data, histone H4 K20 acetylated
  H4: K20AC, % of peptide pool: 23.7533 % of peptide pool
[6]; 2102EP cells, Mod Spec raw data, histone H4 K20 dimethylated
  H4: K20ME2, % of peptide pool: 42.9015 % of peptide pool
[6]; 2102EP cells, Mod Spec raw data, histone H4 K20 monomethylated
  H4: K20ME1, % of peptide pool: 5.498 % of peptide pool
[6]; 2102EP cells, Mod Spec raw data, histone H4 K20 trimethylated
  H4: K20ME3, % of peptide pool: 1.56 % of peptide pool
[6]; 2102EP cells, Mod Spec raw data, histone H4 K20 unmodified
  H4: K20UN, % of peptide pool: 26.2873 % of peptide pool
[6]; [8]
  change of histone modifications of the expected mode of action (Mod Spec): reduction of H3K9me2/me3
  off-target changes of histone modifications (Mod Spec): increase of H4K20ac

Source: PMC8742467, “Therapeutical interference with the epigenetic landscape of germ cell tumors: a comparative drug study and new mechanistical insights” (Clinical Epigenetics, 2022)
